Measurements taken from US8202893B2, “Cannabinergic lipid ligands” (University of Connecticut, priority 2004, dated 2012).
Read-outs that look alike come from different tables or passages of the source.

Assays:
[1] = target: T1, FAAH (fatty acid amide hydrolase) (Rattus norvegicus, UniProt P97612); assay: FAAH screening: inhibition of anandamide metabolism to arachidonic acid; assay type: biochemical; conditions: 25 nmoles compound with 25 nmoles AEA, 75 μg enzyme, 250 μL, 15 min
T1 construct: Anandamide Amidase Activity in Rat Brain Microsomes; from tissue; host or cells: rat brain microsomes (by the cited procedure)
T1 sequence (P97612 1-579): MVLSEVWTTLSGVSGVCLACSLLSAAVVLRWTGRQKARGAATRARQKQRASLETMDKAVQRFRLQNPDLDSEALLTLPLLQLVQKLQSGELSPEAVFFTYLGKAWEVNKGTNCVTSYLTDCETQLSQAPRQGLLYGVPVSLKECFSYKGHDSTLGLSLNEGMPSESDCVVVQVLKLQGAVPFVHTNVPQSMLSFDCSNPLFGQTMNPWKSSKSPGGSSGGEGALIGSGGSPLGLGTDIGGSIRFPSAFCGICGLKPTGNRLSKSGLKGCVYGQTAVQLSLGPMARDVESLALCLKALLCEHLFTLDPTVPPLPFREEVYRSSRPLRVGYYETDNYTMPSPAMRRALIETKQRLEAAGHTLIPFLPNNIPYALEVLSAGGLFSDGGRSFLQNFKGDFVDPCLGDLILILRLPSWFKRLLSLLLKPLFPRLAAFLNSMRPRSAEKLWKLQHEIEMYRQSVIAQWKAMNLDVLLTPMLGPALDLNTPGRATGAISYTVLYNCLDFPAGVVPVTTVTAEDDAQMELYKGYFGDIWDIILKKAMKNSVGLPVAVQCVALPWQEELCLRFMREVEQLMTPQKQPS
Procedure: The FAAH (fatty acid amide hydrolase) enzyme preparation was obtained according to the procedure of Lang and Makriyannis et al High Performance Liquid Chromatographic Determination of Anandamide Amidase Activity in Rat Brain Microsomes, Analytical Biochemistry (238): 40-45, 1996.
All compound solutions were made to a concentration of 10 mM in DMSO. Three tests were performed on each compound: hydrolysis, to determine the stability of the compound in assay conditions without the enzyme present; metabolism, to determine the stability of the compound with the enzyme present; and inhibition of anandamide (native substrate) metabolism to arachidonic acid.
Again the reaction mixture was treated in the same manner as described above and the concentrations of AEA and AA were calculated using external standards. Percent inhibition was calculated using the following equation: % Inhib.=(AA15-AA0)i/(AA15-AA0)s where (AA15-AA0)c is the amount of arachidonic acid formed over 15 minutes from AEA with the inhibitor present and (AA15-AA0)s is the amount of arachidonic acid formed over 15 minutes from AEA when the inhibitor is not present. […] The reaction mixtures were treated as described above and the amount of AA formed was calculated. The software package GraphPad Prism was utilized to calculate IC50 and Ki. HPLC Conditions:
Chromatographic separation was achieved using an Ultrasphere ODS Pre-column (4.6×45 mm) from Beckman. Hardware consisted of a Waters Millennium HPLC system with a 20 μL injection loop. The mobile phase consisted of 8.5% o-phosphoric acid:acetonitrile (3:7), run isocratically at a rate of 1 mL/min and detection at 204 nm. The total run time was 8 minutes with AEA eluting at 2.2 minutes and AA at 6.0 minutes.

[2] = target: T2, CB2 receptor (Mus musculus, UniProt P47936); assay: CB2 receptor binding, [3H]CP-55,940 displacement; conditions: mouse spleen membranes
T2 construct: membranes were prepared from frozen mouse spleen; from tissue; host or cells: mouse spleen
Procedure: (§1) The treated membranes were subsequently used in the binding assay described below. Approximately 30 μg of membranes were incubated in silanized 96-well microtiter plate with TME containing 0.1% essentially fatty acid-free bovine serum albumin (BSA), 0.8 nM [^3H] CP-55,940, and various concentrations of test materials in a final volume of 200 μL. The assays were incubated for 1 hour at 30° C. and then immediately filtered using Packard Filtermate 196 harvester and Whatman GF/C filterplates and washed with wash buffer (TME) containing 0.5% BSA. Radioactivity was detected using MicroScint 20 scintillation cocktail added directly to the dried filterplates, and the filterplates were counted using a Packard Instruments Top-Count. Nonspecific binding was assessed using 100 nM CP-55,940. Data collected from three independent experiments performed with duplicate determinations was normalized between 100% and 0% specific binding for [^3H] CP-55,940, determined using buffer and 100 nM CP-55,940. The normalized data was analyzed using a 4-parameter nonlinear logistic equation to yield IC50 values.
For the CB2 receptor binding studies, membranes were prepared from frozen mouse spleen essentially according to the procedure of P. R. Dodd et al, A Rapid Method for Preparing Synaptosomes: Comparison with Alternative Procedures, Brain Res., 226, 107-118 (1981) which is incorporated by reference herein. Silanized centrifuge tubes were used throughout to minimize receptor loss due to adsorption. The CB2 binding assay was conducted in the same manner as for the CB1 binding assay. The binding affinities (Ki) were also expressed in nanomoles (nM).

[3] = target: T3, CB1 cannabinoid receptor (Rattus norvegicus, UniProt P20272); assay: CB1 receptor binding, [3H]CP-55,940 displacement; conditions: rat forebrain membranes
T3 construct: membranes were prepared from rat forebrain membranes; from tissue; host or cells: rat forebrain
Procedure: Some inventive analogs were tested for CB2 receptor binding affinity and for CB1 receptor affinity (to determine selectivity). […] The lower the Ki value, the higher the binding affinity. […] For the CB1 receptor binding studies, membranes were prepared from rat forebrain membranes according to the procedure of P. R. Dodd et al, A Rapid Method for Preparing Synaptosomes: Comparison with Alternative Procedures, Brain Res., 107-118 (1981). The binding of the novel analogues to the CB1 cannabinoid receptor was assessed as described in W. A. Devane et al, Determination and Characterization of a Cannabinoid Receptor in a Rat Brain, Mol. Pharmacol., 34, 605-613 (1988) and A. Charalambous et al, 5′-azido Δ^8-THC: A Novel Photoaffinity Label for the Cannabinoid Receptor, J. Med. Chem., 35, 3076-3079 (1992) with the following changes. The above articles are incorporated by reference herein.
Membranes, previously frozen at −80° C., were thawed on ice. To the stirred suspension was added three volumes of TME (25 mM Tris-HCl buffer, 5 mM MgCl2 and 1 mM EDTA) at a pH 7.4. The suspension was incubated at 4° C. for 30 min. At the end of the incubation, the membranes were pelleted and washed three times with TME.
as §1

[4] = with PMSF (second value of cell), read-out: Ki CB1 (nM) (o/w PMSFQ)
[5] = without PMSF (first value of cell), read-out: Ki CB1 (nM) (o/w PMSFQ)
[6] = with PMSF (second value of cell), read-out: Ki CB1 (nM) (o/w PMSF)
[7] = without PMSF (first value of cell), read-out: Ki CB1 (nM) (o/w PMSF)

T2 sequence (P47936 whole entry): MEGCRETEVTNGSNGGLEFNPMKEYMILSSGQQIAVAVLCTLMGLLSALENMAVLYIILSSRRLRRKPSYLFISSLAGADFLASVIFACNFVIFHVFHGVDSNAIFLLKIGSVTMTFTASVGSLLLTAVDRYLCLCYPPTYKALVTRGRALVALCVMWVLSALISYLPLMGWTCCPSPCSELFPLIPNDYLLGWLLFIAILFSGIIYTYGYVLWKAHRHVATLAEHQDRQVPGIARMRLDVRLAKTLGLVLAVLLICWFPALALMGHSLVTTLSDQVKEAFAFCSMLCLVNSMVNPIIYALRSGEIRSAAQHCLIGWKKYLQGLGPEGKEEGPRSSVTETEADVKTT
T3 sequence (P20272 whole entry): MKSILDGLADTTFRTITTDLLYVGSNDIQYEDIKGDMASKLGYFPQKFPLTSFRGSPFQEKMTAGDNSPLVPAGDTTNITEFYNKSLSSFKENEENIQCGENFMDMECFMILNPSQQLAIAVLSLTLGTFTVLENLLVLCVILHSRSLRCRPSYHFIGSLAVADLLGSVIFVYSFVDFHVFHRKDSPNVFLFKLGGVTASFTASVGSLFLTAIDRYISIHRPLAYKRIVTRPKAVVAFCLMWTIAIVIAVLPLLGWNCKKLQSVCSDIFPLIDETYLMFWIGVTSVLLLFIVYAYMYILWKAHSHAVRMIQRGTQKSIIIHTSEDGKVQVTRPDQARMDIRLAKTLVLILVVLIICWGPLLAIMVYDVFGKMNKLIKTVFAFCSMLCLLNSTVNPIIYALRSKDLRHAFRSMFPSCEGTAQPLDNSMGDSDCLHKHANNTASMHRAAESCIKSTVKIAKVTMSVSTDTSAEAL

Row | Structure (SMILES) | FAAH % Inhibition [1] [%] | Ki [2] [nM] | Ki [3, 4] [nM] | Ki [3, 5] [nM] | Ki [3, 6] [nM] | Ki [3, 7] [nM]
1 | [N-]=[N+]=NCCCC/C=C\C/C=C\C/C=C\C/C=C\CCCC(=O)NCC1CC1 [Compound A6] | 11 | 426 | 114 | 195 | – | –
2 | CCCCC/C=C\C/C=C\C/C=C\C/C=C\CCCCNC(=O)NC[C@H](C)O [Compound B12] | 17.2 | 242 | – | – | 126 | 380
3 | CCCCCC=CCC=CCC=CCC=CCCCCOC(=O)NCC(C)O (stereo not drawn) [Compound B3] | 10 | 597 | – | – | 396 | 526
4 | O=C(CCC/C=C\C/C=C\C/C=C\C/C=C\CCc1ccccc1)Nc1ccc(O)cc1 [Compound A3] | 34 | 83.3 | 58.6 | 183 | – | –
5 | O=C(CCC/C=C\C/C=C\C/C=C\C/C=C\CCCCCBr)NC1CC1 [Compound A18] | 72 | 12.3 | 0.16 | 25.1 | – | –
6 | O=C(CCC/C=C\C/C=C\C/C=C\C/C=C\CCc1ccccc1)Nc1nccs1 [Compound A4] | 58 | 1230 | 84.3 | 1180 | – | –
7 | O=C(CCC/C=C\C/C=C\C/C=C\C/C=C\CCc1ccccc1)NCC1CC1 [Compound A2] | 32 | 171 | 129 | 729 | – | –
8 | COc1cc(CNC(=O)CCC/C=C\C/C=C\C/C=C\C/C=C\CCCCN=C=S)ccc1O [Compound A12] | 39 | 553 | 136 | 193 | – | –
9 | COc1cc(CNC(=O)CCC/C=C\C/C=C\C/C=C\C/C=C\CCCCN=[N+]=[N-])ccc1O [Compound A7] | 46 | 302 | 80.5 | 165 | – | –
10 | O=C(CCC/C=C\C/C=C\C/C=C\C/C=C\CCCCc1ccccc1)NCC1CC1 [Compound A1] | 23 | 177 | 153 | 94.6 | – | –
11 | CC/C=C\C/C=C\C/C=C\CCCCCCCCOC(=O)NC[C@H](C)O [Compound B15] | 6.96 | 422 | – | – | 481 | 622
12 | CCCCC/C=C\C/C=C\CCCCCCCCOC(=O)NC[C@H](C)O [Compound B14] | 1.20 | 2250 | – | – | 405 | 1350
